Results reported in ChEMBL document CHEMBL3792299, “Novel tricyclics (e.g., GSK945237) as potent inhibitors of bacterial type IIA topoisomerases” (Bioorg Med Chem Lett, 2016).
Converted amounts (≈) assume the structure as drawn. Values belong to the molecule of their own block, whether it stands above or below them. The source made the active and inactive calls. The rule behind the calls is not given here.

Key:
Staphylococcus aureus = assay: Antibacterial activity against Staphylococcus aureus WCUH 29 after 18 to 24 hrs by broth microdilution method; assay type: functional
Haemophilus influenzae = assay: Antibacterial activity against Haemophilus influenzae H128 after 18 to 24 hrs by broth microdilution method; assay type: functional
[1] = Inhibition of Haemophilus influenzae DNA gyrase-dependent DNA replication by scintillation proximity assay
Streptococcus pneumoniae [2] = assay: Antibacterial activity against quinolone-resistant Streptococcus pneumoniae TPS3 after 18 to 24 hrs by broth microdilution method; assay type: functional
Cynomolgus monkey [3] = assay: Renal clearance in cynomolgus monkey at 3 mg/kg, iv administered as single dose by LC/MS/MS analysis relative to total clearance; assay type: ADME, organism-based, Macaca fascicularis, Kidney; settings: in vivo
[4] = Cmax in Sprague-Dawley rat at 5 mg/kg, po administered as single dose by LC/MS/MS analysis; assay type: ADME, organism-based; set-up: dose 5 mg/kg, route oral; settings: in vivo
Cynomolgus monkey [5] = assay: Oral bioavailability in cynomolgus monkey at 5 mg/kg administered as single dose by LC/MS/MS analysis; assay type: ADME, organism-based, Macaca fascicularis; settings: in vivo
Canis familiaris [6] = assay: Renal clearance in Beagle dog at 3 mg/kg, iv administered as single dose by LC/MS/MS analysis relative to total clearance; assay type: ADME, organism-based, Canis lupus familiaris, Kidney; settings: in vivo
Cynomolgus monkey [7] = assay: AUC in cynomolgus monkey at 5 mg/kg, po administered as single dose by LC/MS/MS analysis; assay type: ADME, organism-based, Macaca fascicularis; settings: in vivo
Liver microsome [8] = assay: Intrinsic clearance in Sprague-Dawley rat liver microsomes assessed per gram of liver at 0.5 uM by LC/MS/MS analysis; assay type: ADME
[9] = Volume of distribution at steady state in Beagle dog at 3 mg/kg, iv administered as single dose by LC/MS/MS analysis; assay type: ADME, organism-based, Canis lupus familiaris; settings: in vivo, read-out: Vdss
[10] = biological target: Voltage-gated inwardly rectifying potassium channel KCNH2 (Homo sapiens, UniProt Q12809); assay: Inhibition of human ERG
Chain of Voltage-gated inwardly rectifying potassium channel KCNH2 (Q12809 whole entry): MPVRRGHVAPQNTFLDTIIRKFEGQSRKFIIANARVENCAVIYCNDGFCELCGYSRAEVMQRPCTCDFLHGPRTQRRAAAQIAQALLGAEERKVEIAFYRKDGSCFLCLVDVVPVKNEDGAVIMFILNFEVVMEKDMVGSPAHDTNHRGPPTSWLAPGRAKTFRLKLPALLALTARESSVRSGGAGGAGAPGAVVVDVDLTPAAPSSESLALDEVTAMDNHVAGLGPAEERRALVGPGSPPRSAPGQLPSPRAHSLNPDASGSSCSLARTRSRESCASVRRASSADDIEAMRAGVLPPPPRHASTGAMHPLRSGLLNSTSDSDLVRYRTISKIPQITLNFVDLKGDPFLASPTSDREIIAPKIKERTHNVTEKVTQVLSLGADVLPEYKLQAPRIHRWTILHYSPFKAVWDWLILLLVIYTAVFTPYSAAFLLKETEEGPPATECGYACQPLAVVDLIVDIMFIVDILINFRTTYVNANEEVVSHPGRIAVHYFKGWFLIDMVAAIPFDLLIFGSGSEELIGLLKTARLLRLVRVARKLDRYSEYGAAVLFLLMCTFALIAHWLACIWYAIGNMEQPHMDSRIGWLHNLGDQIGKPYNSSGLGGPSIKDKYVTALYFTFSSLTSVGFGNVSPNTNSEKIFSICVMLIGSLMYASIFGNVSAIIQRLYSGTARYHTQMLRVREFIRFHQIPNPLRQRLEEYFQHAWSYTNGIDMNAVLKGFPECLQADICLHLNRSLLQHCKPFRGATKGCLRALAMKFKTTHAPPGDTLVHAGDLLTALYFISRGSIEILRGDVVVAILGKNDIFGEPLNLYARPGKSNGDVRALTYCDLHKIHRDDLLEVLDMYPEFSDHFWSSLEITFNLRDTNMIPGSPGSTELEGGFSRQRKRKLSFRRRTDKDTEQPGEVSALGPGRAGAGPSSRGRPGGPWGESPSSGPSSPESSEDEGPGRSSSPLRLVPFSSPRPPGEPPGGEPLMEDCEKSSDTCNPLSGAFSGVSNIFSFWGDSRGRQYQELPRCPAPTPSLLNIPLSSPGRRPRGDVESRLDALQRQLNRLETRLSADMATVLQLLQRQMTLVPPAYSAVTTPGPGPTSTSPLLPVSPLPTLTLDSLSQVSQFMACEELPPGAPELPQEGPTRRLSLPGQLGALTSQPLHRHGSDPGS

Cynomolgus monkey [11] = assay: Blood clearance in cynomolgus monkey at 3 mg/kg, iv administered as single dose by LC/MS/MS analysis relative to hepatic blood flow; assay type: ADME, organism-based, Macaca fascicularis, Liver; settings: in vivo
Streptococcus pneumoniae [12] = assay: Antibacterial activity against quinolone-resistant Streptococcus pneumoniae TPS3 in rat respiratory tract infection model assessed as decrease in bacterial burden in lung at 50 mg/kg po bid administered through gavage at 1, 7, 24,31 hrs post infection measured after 48 hrs; assay type: functional, organism-based
Rattus norvegicus [13] = assay: Oral bioavailability in Sprague-Dawley rat at 5 mg/kg administered as single dose by LC/MS/MS analysis; assay type: ADME, organism-based; settings: in vivo
[14] = Plasma protein binding in cynomolgus monkey at 0.5 to 5 ug/ml by equilibrium dialysis method; assay type: ADME, cell-free, Macaca fascicularis; settings: read-out: PPB (converted)
[15] = Cmax in cynomolgus monkey at 5 mg/kg, po administered as single dose by LC/MS/MS analysis; assay type: ADME, organism-based, Macaca fascicularis; set-up: dose 5 mg/kg, route oral; settings: in vivo
Canis familiaris [16] = assay: Oral bioavailability in Beagle dog at 5 mg/kg administered as single dose by LC/MS/MS analysis; assay type: ADME, organism-based, Canis lupus familiaris; settings: in vivo
[17] = Cmax in Sprague-Dawley rat at 100 mg/kg, po bid by LC/MS/MS analysis; assay type: ADME, organism-based; set-up: dose 100 mg/kg, route oral; settings: in vivo
Liver microsome [18] = assay: Intrinsic clearance in Beagle dog liver microsomes assessed per gram of liver at 0.5 uM by LC/MS/MS analysis; assay type: ADME, Canis lupus familiaris
[19] = Terminal half life in Sprague-Dawley rat at 3 mg/kg, iv administered as single dose by LC/MS/MS analysis; assay type: ADME, organism-based; settings: in vivo, read-out: beta t1/2 (converted)
Canis familiaris [20] = assay: Blood clearance in Beagle dog at 3 mg/kg, iv administered as single dose by LC/MS/MS analysis relative to hepatic blood flow; assay type: ADME, organism-based, Canis lupus familiaris, Liver; settings: in vivo
Streptococcus pneumoniae [21] = assay: Antibacterial activity against quinolone-resistant Streptococcus pneumoniae TPS3 in rat respiratory tract infection model assessed as decrease in bacterial burden in lung at 100 mg/kg, po bid administered through gavage at 1, 7, 24,31 hrs post infection measured after 48 hrs; assay type: functional, organism-based
[22] = Plasma protein binding in Sprague-Dawley rat at 0.5 to 5 ug/ml by equilibrium dialysis method; assay type: ADME, cell-free; settings: read-out: PPB (converted)
Rattus norvegicus [23] = assay: AUC in Sprague-Dawley rat at 5 mg/kg, po administered as single dose by LC/MS/MS analysis; assay type: ADME, organism-based; settings: in vivo
[24] = Plasma protein binding in Beagle dog at 0.5 to 5 ug/ml by equilibrium dialysis method; assay type: ADME, cell-free, Canis lupus familiaris; settings: read-out: PPB (converted)
[25] = Intrinsic clearance in cynomolgus monkey liver microsomes assessed per gram of liver at 0.5 uM by LC/MS/MS analysis; assay type: ADME, Macaca fascicularis
[26] = Terminal half life in cynomolgus monkey at 3 mg/kg, iv administered as single dose by LC/MS/MS analysis; assay type: ADME, organism-based, Macaca fascicularis; settings: in vivo, read-out: beta t1/2 (converted)
Canis familiaris [27] = assay: AUC in Beagle dog at 5 mg/kg, po administered as single dose by LC/MS/MS analysis; assay type: ADME, organism-based, Canis lupus familiaris; settings: in vivo
[28] = Volume of distribution at steady state in Sprague-Dawley rat at 3 mg/kg, iv administered as single dose by LC/MS/MS analysis; assay type: ADME, organism-based; settings: in vivo, read-out: Vdss
[29] = Cmax in Beagle dog at 5 mg/kg, po administered as single dose by LC/MS/MS analysis; assay type: ADME, organism-based, Canis lupus familiaris; set-up: dose 5 mg/kg, route oral; settings: in vivo
[30] = Volume of distribution at steady state in cynomolgus monkey at 3 mg/kg, iv administered as single dose by LC/MS/MS analysis; assay type: ADME, organism-based, Macaca fascicularis; settings: in vivo, read-out: Vdss
Rattus norvegicus [31] = assay: Blood clearance in Sprague-Dawley rat at 3 mg/kg, iv administered as single dose by LC/MS/MS analysis relative to hepatic blood flow; assay type: ADME, organism-based, Liver; settings: in vivo
Rattus norvegicus [32] = assay: AUC in Sprague-Dawley rat at 100 mg/kg, po bid by LC/MS/MS analysis; assay type: ADME, organism-based; settings: in vivo
[33] = Terminal half life in Beagle dog at 3 mg/kg, iv administered as single dose by LC/MS/MS analysis; assay type: ADME, organism-based, Canis lupus familiaris; settings: in vivo, read-out: beta t1/2 (converted)

Structure (SMILES): Cc1cc(F)c2c3c1ccc(=O)n3C[C@H]2CN1CCC(NCc2cc3c(nn2)OCCO3)CC1
MIC (Staphylococcus aureus): 0.06 µg/mL (≈ 0.129 µM) | MIC (Haemophilus influenzae): 2 µg/mL (≈ 4.3 µM) | IC50 [1]: 0.099 µg/mL (≈ 0.213 µM) | MIC (Streptococcus pneumoniae [2]): 0.5 µg/mL (≈ 1.07 µM)

Structure (SMILES): O=C1CC(NCc2cc3c(nn2)OCCO3)CCN1C[C@@H]1Cn2c(=O)ccc3ccc(F)c1c32 (stereo partly specified)
MIC (Staphylococcus aureus): 16 µg/mL (≈ 34.4 µM) | MIC (Haemophilus influenzae): > 16 µg/mL | IC50 [1]: 0.166 µg/mL (≈ 0.357 µM) | MIC (Streptococcus pneumoniae [2]): 16 µg/mL (≈ 34.4 µM)

Structure (SMILES): O=c1ccc2cccc3c2n1C[C@H]3CN1CCC(NCc2cc3c(nn2)OCCO3)CC1
MIC (Staphylococcus aureus): 0.5 µg/mL (≈ 1.15 µM) | MIC (Haemophilus influenzae): 2 µg/mL (≈ 4.61 µM) | MIC (Streptococcus pneumoniae [2]): 1 µg/mL (≈ 2.31 µM)

Structure (SMILES): O=c1ccc2ccc(F)c3c2n1C[C@H]3CN1CCCC(CNCc2cc3c(nn2)OCCO3)C1 (stereo partly specified)
MIC (Staphylococcus aureus): 1 µg/mL (≈ 2.15 µM) | MIC (Haemophilus influenzae): > 16 µg/mL | IC50 [1]: 0.666 µg/mL (≈ 1.43 µM) | MIC (Streptococcus pneumoniae [2]): 4 µg/mL (≈ 8.59 µM)

Structure (SMILES): N#Cc1ccc2ccc(=O)n3c2c1[C@H](CN1CCC(NCc2cc4c(nn2)OCCO4)CC1)C3
MIC (Staphylococcus aureus): 0.25 µg/mL (≈ 0.545 µM) | MIC (Haemophilus influenzae): 2 µg/mL (≈ 4.36 µM) | IC50 [1]: 0.062 µg/mL (≈ 0.135 µM) | MIC (Streptococcus pneumoniae [2]): 0.5 µg/mL (≈ 1.09 µM)

Structure (SMILES): O=c1ccc2ccc(F)c3c2n1C[C@@H]3CN1CCC(NCc2cc3c(nn2)OCCO3)CC1
MIC (Staphylococcus aureus): 2 µg/mL (≈ 4.43 µM) | MIC (Haemophilus influenzae): > 16 µg/mL | IC50 [1]: 0.121 µg/mL (≈ 0.268 µM) | MIC (Streptococcus pneumoniae [2]): 8 µg/mL (≈ 17.7 µM)

Structure (SMILES): Cc1ccc2ccc(=O)n3c2c1[C@H](CN1CCC(NCc2cc4c(nn2)OCCO4)CC1)C3
MIC (Staphylococcus aureus): 0.25 µg/mL (≈ 0.559 µM) | MIC (Haemophilus influenzae): 4 µg/mL (≈ 8.94 µM) | IC50 [1]: 0.076 µg/mL (≈ 0.17 µM) | MIC (Streptococcus pneumoniae [2]): 1 µg/mL (≈ 2.23 µM)

Structure (SMILES): COc1ccc2ccc(=O)n3c2c1[C@H](CN1CCC(NCc2cc4c(nn2)OCCO4)CC1)C3
MIC (Staphylococcus aureus): 2 µg/mL (≈ 4.31 µM) | MIC (Haemophilus influenzae): 16 µg/mL (≈ 34.5 µM) | IC50 [1]: 0.276 µg/mL (≈ 0.595 µM) | MIC (Streptococcus pneumoniae [2]): 8 µg/mL (≈ 17.3 µM)

MIC (Staphylococcus aureus): 0.06 µg/mL (≈ 0.133 µM) | MIC (Haemophilus influenzae): 0.5 µg/mL (≈ 1.1 µM) | IC50 [1]: 0.036 µg/mL (≈ 0.0796 µM)
Structure (SMILES): O=c1cnc2ccc(F)c3c2n1C[C@H]3CN1CCC(NCc2cc3c(nn2)OCCO3)CC1

Structure (SMILES): O=c1ccc2ccc(F)c3c2n1C[C@H]3CN1CCC(NCc2cc3c(nn2)OCCO3)CC1 [GSK-945237]
CL (Cynomolgus monkey [3]): 45% | Cmax [4]: 40 ng/mL | F (Cynomolgus monkey [5]): 34% | MIC (Staphylococcus aureus): 0.06 µg/mL (≈ 0.133 µM) | CL (Canis familiaris [6]): 74% | AUC (Cynomolgus monkey [7]): 1190 ng·h/mL | CLint (Liver microsome [8]): 0.7 mL/min/g | Vd [9]: 6.1 L/kg | IC50 [10]: 238 µM | CL (Cynomolgus monkey [11]): 40% | Activity (Streptococcus pneumoniae [12]): Active | F (Rattus norvegicus [13]): 22% | fraction unbound [14]: 0.576 | Cmax [15]: 210 ng/mL | F (Canis familiaris [16]): 100% | Cmax [17]: 3000 ng/mL | CLint (Liver microsome [18]): < 0.6 mL/min/g | half-life [19]: 1.9 h | MIC (Haemophilus influenzae): 1 µg/mL (≈ 2.21 µM) | CL (Canis familiaris [20]): 40% | Activity (Streptococcus pneumoniae [21]): Active | fraction unbound [22]: 0.367 | AUC (Rattus norvegicus [23]): 290 ng·h/mL | fraction unbound [24]: 0.53 | CLint [25]: 1.5 mL/min/g | IC50 [1]: 0.034 µg/mL (≈ 0.0753 µM) | half-life [26]: 7.6 h | AUC (Canis familiaris [27]): 6050 ng·h/mL | Vd [28]: 7.2 L/kg | Cmax [29]: 1070 ng/mL | Vd [30]: 8.2 L/kg | CL (Rattus norvegicus [31]): 100% | MIC (Streptococcus pneumoniae [2]): 0.25 µg/mL (≈ 0.554 µM) | AUC (Rattus norvegicus [32]): 30 ug.hr/ml/day | half-life [33]: 8.8 h

Structure (SMILES): COc1c(N2C[C@@H]3CCCN[C@@H]3C2)c(F)cc2c(=O)c(C(=O)O)cn(C3CC3)c12 [MOXIFLOXACIN]
Activity (Streptococcus pneumoniae [21]): inactive | MIC (Streptococcus pneumoniae [2]): 4 µg/mL (≈ 9.96 µM)
